# Source: US20100266604A1, “USE OF TAM RECEPTOR INHIBITORS AS IMMUNOENHANCERS AND TAM ACTIVATORS AS IMMUNOSUPPRESSORS” (The Salk Institute for Biological Studies, priority 2007, published 2010)
# Experiments:
# Type in all cases: cell-based, mouse
# [1] = test system: IκBα and IκBβ degradation (NF-κB pathway) in BM-DCs; assay: Quantitative Li-Cor Odyssey Western blot of TLR-induced IκB degradation
# Protocol: (§1) Splenic DCs (1×10^6 cells/ml) or BM-DCs (5×10^6 cells/ml) were cultured in serum-free medium and treated with the indicated concentrations of murine recombinant Gas6, murine recombinant Protein S, the TLR ligands indicated above, recombinant mouse IFNα (PBL Biomedical laboratories), recombinant mouse Axl-FC chimera (R&D), cyclohexamide (Sigma) or Actinomycin D (Sigma). Whole cell lysates and RNA extraction were performed as indicated below.
# (§2) DCs were washed in PBS and harvested in NuPage LDS sample buffer (Invitrogen) with 100 μM DTT. Whole cell lysates were resolved by electrophoresis, proteins were transferred to a PVDF membrane (Immobilon P, Millipore), blocked in 3% BSA/TBS-Tween-20 and probed with the indicated antibodies. For fluorescent western blotting with the Odyssey system, proteins were transferred to an Immobilon-FL PVDF membrane (Millipore) and incubated with two primary antibodies in 0.1% casein/PBS-Tween-20. Following incubation with fluorescence-labeled secondary antibodies, membranes were scanned with the Odyssey imaging system (LI-COR).
# [2] = test system: phospho-STAT1 (Y701), phospho-STAT2, phospho-STAT3 in DCs; assay: Immunoblot of STAT phosphorylation in DCs
# Protocol: as §1, §2
# [3] = test system: TRAF6 and TRAF3 polyubiquitylation in BM-DCs; assay: Ubiquitylation assay of TRAF6 and TRAF3; conditions: 30 minutes LPS, 2-hour prior incubation with Gas6
# Protocol: For ubiquitylation assays, 5×10^6 BM-DCs per condition were harvested in PBS containing 1% SDS and boiled for 5 minutes. PBS containing 1% Triton X-100, 1 mM DTT, 1 mM Na3VO4, 5 mM NaF and protease inhibitors (Complete, Roche) was added and the mixture was sonicated. Lysates were precleared for 1 hour by incubation with Immobilized rProteinA (RepliGen) and incubated overnight with primary antibody at 4° C. Immobilized rProteinA was added for the last 2 hours. The immunoprecipitates were washed in PBS containing 0.2% NP-40 and 0.5 M LiCl and resuspended and boiled in NuPage LDS sample buffer (Invitrogen) with 100 μM DTT.
# [4] = test system: SOCS1 and SOCS3 mRNA in DCs; assay: Q-PCR of SOCS1 and SOCS3 mRNA in DCs
# Protocol: as §1
# (§3) After stimulation, cells were harvested, and total RNA was isolated using the RNeasy mini kit (Qiagen). Reverse transcription was performed according to manufacturer instructions with RT Superscript III (Invitrogen). PCR reactions were performed on an ABI Prism 7700 Sequence Detection System using SYBRGreen PCR master mix (Applied Biosystems). Each reaction was normalized against the expression of β-actin or GAPDH. Analyses of dissociation curves were performed with SDS software (Applied Biosystems) to ensure the absence of nonspecific amplification. Q-PCR primers used herein are listed below.
# DCs = assay: DC viability after Gas6 treatment
# [5] = test system: TLR-induced cytokine production in DCs; assay: DC activation assay: TLR-induced cytokine production (ELISA / ISRE luciferase reporter)
# Protocol: Splenic DC or BM-DCs (1×10^6 cells/ml) were cultured overnight in serum-free medium (StemSpan, StemCell Technologies Inc.) in the presence of the indicated concentrations of LPS from Salmonella minnesota R595 Re (Alexis), CpG-ODN 1668 (TCCATGACGTTCCGATGCT; SEQ ID NO: 19; Integrated DNA Technologies) or Poly I:C (InvivoGen) alone or in the presence of murine recombinant Gas6 (R&D Systems) or murine recombinant Protein S (produced as described in Prasad et al., (2006) Mol Cell Neurosci 33:96-108). Cytokine production was quantified in cell-free supernatants by ELISA (ebioscience for IL-12, IL-6 and TNFα and PBL-biomedical for IFNα) or by a luciferase assay using a cell line containing an ISRE-responsive element luciferase reporter construct for Type I IFN (Jiang et al., (2005) Nat Immunol 6:565-570).
# [6] = test system: IRF-7 and IFI-204 mRNA in DCs; assay: Q-PCR of IRF-7 and IFI-204 mRNA in DCs; conditions: BM-DCs, addition of Gas6 alone
# Protocol: as §1, §3
# [7] = test system: IRAK-M, SHIP, ATF-3, IRF-4, Triad3A and Tollip mRNA in BM-DCs; assay: Q-PCR of other negative regulators of TLR signaling; conditions: following TAM receptor activation with 50 nM Gas6
# Protocol: as §1, §3
# [8] = test system: p38 and ERK1/2 phosphorylation in BM-DCs; assay: Immunoblot of TLR-induced MAP kinase activation (phospho-p38, phospho-ERK1/2)
# Protocol: as §1, §2
# [9] = poly I:C, prior treatment with Gas6
substance,measurement,setting,value
"Gas6: murine recombinant Gas6 (R&D Systems), TAM receptor ligand/agonist",CpG-induced degradation of IκBα and IκBβ,"[1]; BM-DCs, prior incubation with ligand",completely blocked
same,kinetics and magnitude of CpG-induced degradation of IκBα and IκBβ,[1]; in the presence of cycloheximide or actinomycin D,"the same, irrespective of the presence or absence of Gas6"
same,Activation of the NF-κB pathway by TLR3,[1]; [9],inhibited
same,activation of STAT2 and 3,"[2]; DC cultures, addition of Gas6",not detected
same,STAT1 tyrosine phosphorylation,"[2]; Ifnar−/− BM-DCs, Gas6 application",incapable of activating STAT1
same,STAT1 activation (phospho-STAT1 Y701),"[2]; TAM triple mutant DCs, Gas6",not seen
same,STAT1 activation (phospho-STAT1 Y701),"[2]; wild-type DCs, incubation with Gas6",activated
same,LPS-induced polyubiquitylation of TRAF6 and TRAF3,[3],potently inhibited
same,SOCS3 mRNA peak expression,"[4]; BM-DCs, 50 nM Gas6, around 90 minutes",approximately 10 fold
same,SOCS1 expression,"[4]; Ifnar−/− DCs, Gas6",unable to up-regulate
same,Gas6-mediated induction of SOCS1 mRNA,[4]; STAT1−/− DCs,completely abolished
same,Gas6 induction of SOCS3 mRNA,[4]; STAT1−/− DCs,substantially reduced
same,SOCS1 mRNA expression increase,"[4]; WT BM-DCs, 50 nM Gas6, 120 minutes",approximately 10 fold
same,DC viability,DCs,unaffected
same,LPS-induced production of IL-6,"[5]; Ifnar−/− DCs, Gas6",unable to inhibit
same,expression of IL6 triggered by LPS or CpG,"[5]; STAT1−/− DCs, 50 nM Gas6, 15 hours",not inhibited
same,poly I:C-induced Type I IFN,"[5]; TLR3 activated by poly I:C, 15 hours, 50 nM Gas6",comparable Gas6-mediated inhibition
same,LPS-induced IL6 and TNFα production,"[5]; TLR4 activated by LPS, 15 hours, 50 nM Gas6",comparable Gas6-mediated inhibition
same,"TLR9-induced production of Type I IFNs, IL6, and TNFα","[5]; wild-type DCs, overnight (15 hours) co-incubation with CpG, 50 nM Gas6",substantially inhibited
same,induction of IRF-7 and IFI-204,[6],not induced
same,"induction of IRAK-M, SHIP, ATF-3, IRF-4, Triad3A, Tollip mRNAs",[7],none of these mRNAs displayed significant induction
same,CpG-induced phosphorylation of p38 and ERK1/2,"[8]; 1 μM CpG, 2-hour prior incubation with ligand",completely blocked
same,activation of p38 and ERK1/2 as a consequence of TLR4 ligation,"[8]; LPS, prior incubation with Gas6",inhibited
same,Activation of the MAP kinase pathway by TLR3,[8]; [9],inhibited
